Where two headings read alike, the source gives them in different places. Square brackets hold non-standard residues; d marks the D form. Peptide text beside a SMILES is read from it. 1Nal = N[C@@H](Cc1cccc2ccccc12)C(=O)O; 2Nal = N[C@@H](Cc1ccc2ccccc2c1)C(=O)O; d1Nal = N[C@H](Cc1cccc2ccccc12)C(=O)O; d2Nal = N[C@H](Cc1ccc2ccccc2c1)C(=O)O; Bta = N[C@@H](Cc1csc2ccccc12)C(=O)O; dBta = N[C@H](Cc1csc2ccccc12)C(=O)O
Tests used:
[1] = metabolism by mouse liver microsomes; type: in vitro ADME; details: read-out: t1/2 in mouse liver microsomes
Procedure: The metabolism of the macrocyclic tetrapeptides by mouse liver microsomes was evaluated as previously described, with the amount of peptide remaining determined by LC-MS/MS [55] using [D-MeAla^2]CJ-15,208 [53] as the internal standard.

rat MOR [2] = molecular target: T1, rat MOR (Rattus norvegicus, UniProt P33535); assay: radioligand equilibrium competition binding, MOR; details: CHO cell membranes, [3H]DAMGO; mean ± SEM, at least three experiments
T1 construct: expressed in transfected cells
Procedure: (§1) Opioid receptor affinities were determined by equilibrium radioligand binding assays as previously described with membranes from Chinese hamster ovary (CHO) cells stably expressing rat KOR, rat MOR, or mouse DOR using the radioligands [^3H]diprenorphine, [^3H][D-Ala^2,N-MePhe^4,glyol]enkephalin (DAMGO), and [^3H][D-Pen^2,D-Pen^5]enkephalin (DPDPE), respectively. Following determination of IC50 values by nonlinear regression using Prism software (GraphPad Software Co., La Jolla, CA, USA), Ki values were calculated using the Cheng–Prusoff equation [57]. The results are presented as the mean ± SEM from at least three separate experiments, each performed in triplicate.

mouse DOR [3] = molecular target: T2, mouse DOR (Mus musculus, UniProt P32300); assay: radioligand equilibrium competition binding, DOR; details: CHO cell membranes, [3H]DPDPE; mean ± SEM, at least three experiments (D-Nal(1′)^4 n = 2)
T2 construct: expressed in transfected cells
Procedure: as §1

C57BL/6J mice [4] = assay: 55 °C warm-water tail-withdrawal assay, antinociception after i.c.v. administration; type: in vivo, mouse; design: key: ~: Maximum antinociception not achieved, precluding calculation of an ED50 value
Procedure: For intracerebroventricular administration, the macrocyclic peptides were dissolved in dimethyl sulfoxide (DMSO), followed by addition of sterile saline (0.9%) so that the final vehicle was 50% DMSO and 50% saline, and the i.c.v. injections were performed as described previously. This concentration of DMSO was not observed to have antinociceptive or behavioral effects in previous use. All solutions for animal administration were prepared fresh daily.
The 55 °C warm-water tail-withdrawal assay was performed in mice as previously described, with the latency of the mouse to withdraw its tail from the water taken as the endpoint (a cut-off time of 15 s was used in this assay). Antinociception was calculated according to the following formula: % antinociception = 100 × (test latency − control latency)/(15 − control latency). Tail-withdrawal data points are the means of 8–16 mice, unless otherwise indicated, with SEM shown by error bars.
All dose–response lines were analyzed by regression, and ED50 (effective dose producing 50% antinociception) values and 95% C.I. were determined using individual data points from graded dose–-response curves with Prism 8.0 software (GraphPad, La Jolla, CA, USA). Percent antinociception was used to determine within-group effects and to allow comparison to baseline latency in tail-withdrawal experiments. The statistical significance of differences between ED50 values was determined by evaluation of the ED50 value shift via nonlinear regression modeling with Prism software. Significant differences in behavioral data were analyzed by ANOVA (one-way or two-way with repeated measures (RM), as appropriate). Significant results were further analyzed with Sidak’s, Tukey’s, or Dunnett’s multiple comparison post hoc tests, as appropriate. Data for conditioned place preference experiments were analyzed by one-way or two-way RM ANOVA, with analyses examining the main effect of conditioned place preference phase (e.g., pre- or post-conditioning) and the interaction of drug pretreatment and/or exposure. All data are presented as mean ± SEM, with significance set at p < 0.05.

rat KOR [5] = molecular target: T3, rat KOR (Rattus norvegicus, UniProt P34975); assay: radioligand equilibrium competition binding, KOR; details: CHO cell membranes, [3H]diprenorphine; mean ± SEM, at least three experiments
T3 construct: expressed in transfected cells
Procedure: as §1

C57BL/6J mice [6] = assay: acute antinociceptive tolerance (dosing at 0 and 8 h); details: i.c.v.; for Naïve ED50 (95% C.I.): naïve mice
Procedure: The degree of tolerance was calculated from the shift in ED50 value from the singly to repeatedly treated condition.

C57BL/6J mice [7] = assay: spontaneous locomotor activity (ambulation), CLAMS/Oxymax; type: in vivo, mouse; details: i.c.v.; [Nal(2′)^4]CJ-15,208 100 nmol, morphine 30 nmol; 80 min
Procedure: (§2) Respiration rates (in breaths per minute) and animal locomotive activity (as ambulation) were assessed using the Oxymax/CLAMS system (Columbus Instruments, Columbus, OH, USA) as described previously. Mice were habituated to their individual sealed housing chambers for 60 min before testing. […] Pressure monitoring within the sealed chambers measured frequency of respiration. Infrared beams located in the floor measured locomotion as number of beam breaks. Respiration and locomotive data were averaged over 20 min periods for 80 min post-injection of the test compound. Data are presented as % vehicle response ± SEM; ambulation, or breaths per minute.

C57BL/6J mice [8] = assay: respiration rate, CLAMS/Oxymax; type: in vivo, mouse; details: i.c.v.; [Nal(2′)^4]CJ-15,208 100 nmol, morphine 30 nmol; 80 min
Procedure: as §2

C57BL/6J mice [9] = details: mouse, in vivo
mouse DOR [10] = molecular target: T2, mouse DOR; details: parent peptides; mean ± SEM; cited from earlier work
rat MOR [11] = molecular target: T1, rat MOR; details: parent peptides; mean ± SEM; cited from earlier work
MOR, KOR, DOR = assay: opioid receptor involvement in antinociception (KO mice / selective antagonist pretreatment), tail-withdrawal assay; type: in vivo, mouse; details: dose producing maximum antinociception, i.c.v., KOR KO mice or β-FNA, nor-BNI, naltrindole pretreatment
Procedure: Except for the Bta^4 analog, contributions of the MOR and KOR were assessed in knockout (KO) mice for those receptors; DOR contribution to the antinociceptive activity of the analogs was assessed by pretreating mice with naltrindole (20 mg/kg, i.p., −20 min) prior to administration of analog (Figure 3).
Assessment of DOR involvement in the agonist activity of each macrocyclic peptide was performed by pretreating additional wild-type mice with a single dose of naltrindole (20 mg/kg, i.p.) 20 min in advance of administration of the macrocyclic peptide.

KOR = molecular target: T4, KOR (Mus musculus, UniProt P33534); assay: antagonism of U50,488 antinociception, tail-withdrawal assay; type: in vivo; details: peptide i.c.v. (3-300 nmol, Figure 4) 140 min before U50,488 10 mg/kg i.p.
T4 construct: endogenous in cells; host or cells: living adult male C57BL/6J mice
Procedure: ; at this time, the antinociceptive activity of the analogs had dissipated. Antinociception produced by the established opioid agonists was then measured 40 min after their administration. The dose response of KOR or DOR antagonism produced by selected analogs was further determined by evaluating antinociception after administration of one of three additional i.c.v. doses of the analog.

rat KOR [12] = molecular target: T3, rat KOR; details: parent peptides; mean ± SEM; cited from earlier work
[13] = antinociception at peak response
[14] = acute tolerance, dosing at 0 and 8 h

Compound | Ki (rat MOR [2]) [nM] | Ki (mouse DOR [3]) [nM] | ED50 (and 95% C.I.) i.c.v. (C57BL/6J mice [4]; [13]) | Ki (rat KOR [5]) [nM] | further results
O=C1N[C@@H](Cc2ccccc2)C(=O)N2CCC[C@@H]2C(=O)N[C@@H](Cc2ccccc2)C(=O)N[C@H]1Cc1csc2ccccc12 [Bta^4, [Bta^4]CJ-15,208] (cyclo(F[dP]F[Bta])) | 90.3 ± 38.5 | 1600 ± 360 | 13.2 (9.62–18.2) nmol | 51.9 ± 4.8 | half-life [1]: 28 min
O=C1N[C@H](Cc2csc3ccccc23)C(=O)N[C@@H](Cc2ccccc2)C(=O)N2CCC[C@@H]2C(=O)N[C@H]1Cc1ccccc1 [D-Bta^4, [D-Bta^4]CJ-15,208] (cyclo(F[dP]F[dBta])) | 84.2 ± 11.8 | > 10000 | – | 4.29 ± 0.38 | –
O=C1N[C@H](Cc2cccc3ccccc23)C(=O)N[C@@H](Cc2ccccc2)C(=O)N2CCC[C@@H]2C(=O)N[C@H]1Cc1ccccc1 [D-Nal(1′)^4, [D-Nal(1′)^4]CJ-15,208] (cyclo(F[dP]F[d1Nal])) | 101 ± 25 | > 10000 | – | 21.4 ± 0.7 | –
O=C1N[C@H](Cc2ccc3ccccc3c2)C(=O)N[C@@H](Cc2ccccc2)C(=O)N2CCC[C@@H]2C(=O)N[C@H]1Cc1ccccc1 [D-Nal(2′)^4, [D-Nal(2′)^4]CJ-15,208] (cyclo(F[dP]F[d2Nal])) | 63.8 ± 5 | > 10000 | 31.2 (22.5–41.9) nmol | 12.3 ± 1.8 | –
CN1CC[C@]23c4c5ccc(O)c4O[C@H]2[C@@H](O)C=C[C@H]3[C@H]1C5 [Morphine, reference compound] | – | – | 2.35 (1.13–5.03) nmol | – | Naïve ED50 (95% C.I.) (C57BL/6J mice [6]): 2.35 (1.13–5.03) nmol; effect on ambulation vs. vehicle (C57BL/6J mice [7]): significantly increased ambulation; effect on respiration rate vs. vehicle (C57BL/6J mice [8]): produced significant, time-dependent respiratory depression; conditioned place preference or aversion (C57BL/6J mice [9]; C57BL/6J): significant (p = 0.03) place preference
O=C1N[C@@H](Cc2ccccc2)C(=O)N2CCC[C@@H]2C(=O)N[C@@H](Cc2ccccc2)C(=O)N[C@H]1Cc1cccc2ccccc12 [Nal(1′)^4, [Nal(1′)^4]CJ-15,208] (cyclo(F[dP]F[1Nal])) | 110 ± 16 | 1920 ± 120 | 0.24 (0.19–0.31) nmol | 103 ± 6 | –
O=C1N[C@@H](Cc2ccccc2)C(=O)N2CCC[C@@H]2C(=O)N[C@@H](Cc2ccccc2)C(=O)N[C@H]1Cc1ccc2ccccc2c1 [Nal(2′)^4, [Nal(2′)^4]CJ-15,208] (cyclo(F[dP]F[2Nal])) | 583 ± 59 | 3300 ± 360 | 19.5 (15.8–24.0) nmol | 358 ± 137 | half-life [1]: > 60 min; Fold-Shift, Naïve ED50 vs. Second ED50 (C57BL/6J mice [6]; [14]): 0.37; leftward shift in the dose–response curve of the second dose (C57BL/6J mice [6]; [14]): 2.7 fold; Naïve ED50 (95% C.I.) (C57BL/6J mice [6]): 19.5 (15.8–24.0) nmol; effect on ambulation vs. vehicle (C57BL/6J mice [7]): not significant; effect on respiration rate vs. vehicle (C57BL/6J mice [8]): did not significantly impair breathing; conditioned place preference or aversion (C57BL/6J mice [9]): no significant preference or aversion
cyclo(F[dP]FW) [CJ-15,208] | – | – | 1.74 (0.62–4.82) nmol | – | Ki (mouse DOR [10]): 1720 ± 350 nM; Ki (rat MOR [11]): 451 ± 114 nM; Receptors Involved in antinociception (MOR, KOR, DOR): KOR, MOR; antagonism of U50,488 antinociception (KOR antagonism) (KOR): displayed significant KOR antagonism; Ki (rat KOR [12]): 27.4 ± 4.6 nM
cyclo(F[dP]F[dW]) [[D-Trp]CJ-15,208] | – | – | – | – | Ki (mouse DOR [10]): 4190 ± 860 nM; Ki (rat MOR [11]): 259 ± 29 nM; ED50 (and 95% C.I.) i.c.v. (C57BL/6J mice [4]; symbol where no ED50 could be calculated): ~; antagonism of U50,488 antinociception (KOR antagonism) (KOR): significantly antagonized U50,488-induced antinociception; Ki (rat KOR [12]): 21.8 ± 4.8 nM
